The numbers were not newly measured in patent US9598354B2, “Fumarate compounds, pharmaceutical compositions thereof, and methods of use” (priority 2015, dated 2017), which cites them from elsewhere.

With `COC(=O)/C=C/C(=O)OC` [DMF, dimethylfumarate], the aqueous solubility result was “poor”.
